Assay results as given in PMC6706930, “A novel oral micellar fenretinide formulation with enhanced bioavailability and antitumour activity against multiple tumours from cancer stem cells” (Journal of Experimental & Clinical Cancer Research : CR, 2019).
Values joined by “and” are separate entries in the source; they are usually repeats but may differ in a detail not shown here. Equal entries are not always repeated. Where two headings read alike, the source gives them in different places. One block for each molecule: values may come before it.

Key:
[1] = Tumour pharmacokinetics: fenretinide and metabolite levels in plasma and tumours of xenografted mice; assay type: in vivo; details: for concentration at 3 h: female, mouse, oral
Description: The determination of fenretinide in plasma of mice and the others biological samples was determined according to a method specifically developed and validated for the quantification of fenretinide (4-HPR) based on liquid chromatography-tandem mass spectrometry (LC–MS/MS) (manuscript in preparation). The procedure of sample preparation and quantification can be summarized as follows. 30 μL aliquot of plasma was added with 3 ng of deuterated internal standard (^2H4 4-HPR), deproteinized by mean of 90 μL of acetonitrile and centrifuged 5 min at 13200 rpm at room temperature. The supernatant was recovered and 5 μL injected into a HPLC system (Series 200, Perkin Elmer, MA, USA). Chromatographic separation was achieved on a Gemini-C18 column (50 mm × 2.0 mm, 5 μm particle size; Phenomenex Inc., Torrance, CA, USA) at 32 °C protected with a Security Guard™ ULTRA cartridges C18. The detection obtained by Mass spectrometric detection was carried out on a triple quadrupole API 4000 mass spectrometer (Sciex, MA, USA) equipped with atmospheric pressure chemical ionization source (APCI) operating in positive ion mode monitoring the transitions 392.3 > 283.2 m/z for 4-HPR and 396.3 > 283.2 m/z for the deuterated internal standard. To assay study samples, a calibration curve of six points (range: 1.0–500.00 ng/mL) was prepared in control mouse plasma assessing the precision and the accuracy of the run analyzing at the same time a set of freshly prepared quality controls samples. The Limit Of Quantification of the method was 1 ng/mL in plasma and urine and 50 ng/g in faeces.
Cell suspensions of lung and colon cancer and melanoma CSC lines were mixed 1:1 with Growth Factor-Reduced Matrigel (Beckton Dickinsons) and injected subcutaneously in both flanks of 5-week-old female NOD-SCID (non-obese diabetic/severe combined immunodeficiency) mice in the case of colon and melanoma or NSG (non-obese diabetic/severe combined immunodeficiency gamma chain deficient) mice in the case of lung (Charles River, Wilmington, MA, USA). For drug treatment, when tumours reached a mean diameter of 0.5 cm, groups of 6 mice were randomized into 3 groups and treated with vehicle, with Bio-nFeR (50,100 or 150 mg/kg as described) freshly dissolved in sterile water or with the standard formulation NCI-FeR that reproduce NCI capsule (50 or 100 mg/Kg). Treatments were administered by oral gavage 5 days on and 2 days off for 3 weeks. Tumours were measured twice a week using a caliper, and mice were monitored for signs of drug-induced toxicity and weighed regularly. At the end of treatments, in a study paralleling the assessment of antitumour activity, tumours and blood samples were collected for pharmacokinetic and molecular studies 3 hours after the last drug administration. Collection of blood, plasma separation and storing were as previously described. Immediately after blood collection mice were sacrificed by cervical dislocation, tumours removed rapidly frozen in liquid nitrogen and stored in small pieces at − 80 °C for subsequent fenretinide determination, protein and lipid analyses. All procedures were performed with the approval of the Ethics Committee for Animal Experimentation.

[2] = stated as known, no reference given; cited from earlier work
[3] = colon cancer xenograft mice, Bio-nFeR 150 mg/kg, Suppl. Table 5
[4] = colon cancer xenograft, Bio-nFeR 150 mg/kg, Suppl. Table 5
[5] = lung cancer xenograft mice, Bio-nFeR 100 mg/kg, Suppl. Table 5
[6] = lung cancer xenograft, Bio-nFeR 100 mg/kg, Suppl. Table 5
[7] = melanoma xenograft mice, Bio-nFeR 100 mg/kg, Suppl. Table 5
[8] = melanoma xenograft, Bio-nFeR 100 mg/kg, Suppl. Table 5

- concentration at 3 h ([1]; NOD-SCID, colon cancer xenograft, Bio-nFeR 150 mg/kg, tumour density assumed =1, read-out: Mean 4-HPR concentration: Tumor): 4.8 µM
- concentration at 3 h ([1]; NOD-SCID, melanoma xenograft, Bio-nFeR 100 mg/kg, tumour density assumed =1, read-out: Mean 4-HPR concentration: Tumor): 5.4 µM
- concentration at 3 h ([1]; NOD-SCID, plasma, colon cancer xenograft mice, Bio-nFeR 150 mg/kg, Suppl. Table 5, read-out: Mean concentration (±sd), Plasma): 4990 ng/mL
- concentration at 3 h ([1]; NOD-SCID, plasma, colon cancer xenograft mice, Bio-nFeR 150 mg/kg, read-out: Mean 4-HPR concentration: Plasma): 12.1 µM
- concentration at 3 h ([1]; NOD-SCID, plasma, melanoma xenograft mice, Bio-nFeR 100 mg/kg, Suppl. Table 5, read-out: Mean concentration (±sd), Plasma): 1710 ng/mL
- concentration at 3 h ([1]; NOD-SCID, plasma, melanoma xenograft mice, Bio-nFeR 100 mg/kg, read-out: Mean 4-HPR concentration: Plasma): 4.7 µM
- concentration at 3 h ([1]; NOD-SCID, tumour, colon cancer xenograft, Bio-nFeR 150 mg/kg, Suppl. Table 5, read-out: Mean concentration (±sd), Tumor): 1880 ng/mL
- concentration at 3 h ([1]; NOD-SCID, tumour, colon cancer xenograft, Bio-nFeR 150 mg/kg, read-out: Mean 4-HPR concentration ± (sd): Tumor): 1880 ng/g
- concentration at 3 h ([1]; NOD-SCID, tumour, melanoma xenograft, Bio-nFeR 100 mg/kg, Suppl. Table 5, read-out: Mean concentration (±sd), Tumor): 2130 ng/mL
- concentration at 3 h ([1]; NOD-SCID, tumour, melanoma xenograft, Bio-nFeR 100 mg/kg, read-out: Mean 4-HPR concentration ± (sd): Tumor): 2130 ng/g
- concentration at 3 h ([1]; NSG, lung cancer xenograft, Bio-nFeR 100 mg/kg, tumour density assumed =1, read-out: Mean 4-HPR concentration: Tumor): 5.7 µM
- concentration at 3 h ([1]; NSG, plasma, lung cancer xenograft mice, Bio-nFeR 100 mg/kg, Suppl. Table 5, read-out: Mean concentration (±sd), Plasma): 3450 ng/mL
- concentration at 3 h ([1]; NSG, plasma, lung cancer xenograft mice, Bio-nFeR 100 mg/kg, read-out: Mean 4-HPR concentration: Plasma): 8.8 µM
- concentration at 3 h ([1]; NSG, tumour, lung cancer xenograft, Bio-nFeR 100 mg/kg, Suppl. Table 5, read-out: Mean concentration (±sd), Tumor): 2230 ng/mL
- concentration at 3 h ([1]; NSG, tumour, lung cancer xenograft, Bio-nFeR 100 mg/kg, read-out: Mean 4-HPR concentration ± (sd): Tumor): 2230 ng/g
Structure (SMILES): CC1=C(/C=C/C(C)=C/C=C/C(C)=C/C(=O)Nc2ccc(O)cc2)C(C)(C)CCC1 [4-HPR, 4-hydroxy (phenyl)retinamide, reference compound]
- concentration at 3 h ([1]; NOD-SCID (colon, melanoma), NSG (lung), tumour, both drug doses analyzed (Bio-nFeR 100 and 150 mg/kg), three xenograft models, read-out: intra-tumour concentration): 1880 ng/g to 2230 ng/g and 4.8 µM to 5.7 µM

- Mean concentration (±sd), Plasma [1, 3]: 3519 (1319) ng/ml
- Mean concentration (±sd), Tumor [1, 4]: 2514 (189) ng/ml
- Mean concentration (±sd), Plasma [1, 5]: 2142 (374) ng/ml
- Mean concentration (±sd), Tumor [1, 6]: 2028 (150) ng/ml
- Mean concentration (±sd), Plasma [1, 7]: 1226 (220) ng/ml
- Mean concentration (±sd), Tumor [1, 8]: 2323(134) ng/ml
Structure (SMILES): CC1=C(/C=C/C(C)=C/C=C/C(C)=C/C(=O)Nc2ccc(O)cc2)C(C)(C)CCC1=O [4-oxo-4-HPR]

- Mean concentration (±sd), Plasma [1, 3]: 790 (261) ng/ml
- Mean concentration (±sd), Tumor [1, 4]: 1090 (503) ng/ml
- Mean concentration (±sd), Plasma [1, 5]: 394 (68) ng/ml
- Mean concentration (±sd), Tumor [1, 6]: 2282 (598) ng/ml
- Mean concentration (±sd), Plasma [1, 7]: 190 (32) ng/ml
- Mean concentration (±sd), Tumor [1, 8]: 707 (476) ng/ml
Structure (SMILES): COc1ccc(NC(=O)\C=C(C)/C=C/C=C(C)\C=C\C2=C(C)CCCC2(C)C)cc1 [MPR]
- activity of the metabolite [2]: inactive
